Values quoted from earlier work, collected in patent US20060099249A1, “Modified release formulations of at least one form of tramadol” (priority 2002, published 2006).
Like-named read-outs stand apart in the source and are kept apart here.

Experiments:
osteoarthritis [1] = conditions: rofecoxib 12.5 mg
osteoarthritis [2] = conditions: 12 weeks, celecoxib 100 mg BID, Naproxen 500 mg BID
[3] = Study No. 058, Nabumetone 1500 mg, over 6-weeks
[4] = Study No. 033, Ibuprofen 2400 mg, over 6-weeks
[5] = Study No. 040, Ibuprofen 2400 mg, over 6-weeks

| Structure (SMILES) | WOMAC pain walking on a flat surface, mean difference vs placebo (osteoarthritis [1]; [3]) [mm] | WOMAC pain walking on a flat surface, mean difference vs placebo (osteoarthritis [1]; [4]) [mm] | WOMAC pain walking on a flat surface, mean difference vs placebo (osteoarthritis [1]; [5]) [mm] | WOMAC pain walking on a flat surface, mean difference vs placebo (osteoarthritis [1]; Study No. 029, LS mean change from baseline over 6-weeks) [mm] | Arthritis Pain VAS change from baseline, LS mean difference vs placebo (osteoarthritis [2]; Study No. 020) [mm] | Arthritis Pain VAS change from baseline, LS mean difference vs placebo (osteoarthritis [2]; Study No. 054) [mm] |
| --- | --- | --- | --- | --- | --- | --- |
| COc1ccc2cc(CCC(C)=O)ccc2c1 [Nabumetone] | 10 | – | – | – | – | – |
| CC(C)Cc1ccc(C(C)C(=O)O)cc1 (stereo not drawn) [Ibuprofen] | – | 13.5 | 14.6 | – | – | – |
| CS(=O)(=O)c1ccc(C2=C(c3ccccc3)C(=O)OC2)cc1 [rofecoxib, Rofecoxib] | 9.0 | 12.4 | 15.4 | 14.3 | – | – |
| COc1ccc2cc([C@H](C)C(=O)O)ccc2c1 [Naproxen] | – | – | – | – | 7.6 | 11.2 |
